Measurements published in EP4620956A1, “PARP1 INHIBITORS” (Zhejiang Yangli Pharmaceutical Technology Co., Ltd., priority 2022, dated 2024).

Tests used:
PARP2 = target: T1, PARP2 (Homo sapiens, UniProt Q9UGN5); experiment: Inhibition of PARP2 enzyme activity (chemiluminescence); type: biochemical
T1 construct: purchased BPS 80502

PARP1 [1] = target: T2, PARP1 (Homo sapiens, UniProt P09874); experiment: DNA trapping capability of PARP1 (HTRF); type: biochemical
T2 construct: purchased BPS 80501

A549 PARP2-KO cell line = experiment: Cellular PARylation inhibition, high-content imaging, PARP2-KO; type: cell-based; details: PARylation at the cellular level
PARP1 [2] = target: T2, PARP1; experiment: PARP1-DNA trapping, fluorescence polarization (FP); type: biochemical
PARP11 = target: T3, PARP11 (Homo sapiens, UniProt Q9NR21); experiment: Inhibition of PARP11 enzyme activity (chemiluminescent assay kit); type: biochemical
T3 construct: purchased BPS 80511
T3 sequence (Q9NR21 1-338): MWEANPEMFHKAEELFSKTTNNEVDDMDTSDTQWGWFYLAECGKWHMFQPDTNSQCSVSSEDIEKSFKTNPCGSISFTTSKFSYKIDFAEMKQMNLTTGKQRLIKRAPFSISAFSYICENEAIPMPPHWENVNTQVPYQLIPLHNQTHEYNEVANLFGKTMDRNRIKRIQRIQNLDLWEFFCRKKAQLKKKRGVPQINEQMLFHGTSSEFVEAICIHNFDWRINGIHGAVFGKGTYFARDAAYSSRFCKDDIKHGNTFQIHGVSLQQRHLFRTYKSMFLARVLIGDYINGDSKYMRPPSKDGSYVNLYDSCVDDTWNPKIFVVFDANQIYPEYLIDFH

A549 PARP1-KO cell lines = experiment: Cellular PARylation inhibition, high-content imaging, PARP1-KO; type: cell-based
PARP7 = target: T4, PARP7 (Homo sapiens, UniProt Q7Z3E1); experiment: Inhibition of PARP7 enzyme activity (chemiluminescent assay kit); type: biochemical
T4 construct: purchased BPS 80527
T4 sequence (Q7Z3E1 1-657): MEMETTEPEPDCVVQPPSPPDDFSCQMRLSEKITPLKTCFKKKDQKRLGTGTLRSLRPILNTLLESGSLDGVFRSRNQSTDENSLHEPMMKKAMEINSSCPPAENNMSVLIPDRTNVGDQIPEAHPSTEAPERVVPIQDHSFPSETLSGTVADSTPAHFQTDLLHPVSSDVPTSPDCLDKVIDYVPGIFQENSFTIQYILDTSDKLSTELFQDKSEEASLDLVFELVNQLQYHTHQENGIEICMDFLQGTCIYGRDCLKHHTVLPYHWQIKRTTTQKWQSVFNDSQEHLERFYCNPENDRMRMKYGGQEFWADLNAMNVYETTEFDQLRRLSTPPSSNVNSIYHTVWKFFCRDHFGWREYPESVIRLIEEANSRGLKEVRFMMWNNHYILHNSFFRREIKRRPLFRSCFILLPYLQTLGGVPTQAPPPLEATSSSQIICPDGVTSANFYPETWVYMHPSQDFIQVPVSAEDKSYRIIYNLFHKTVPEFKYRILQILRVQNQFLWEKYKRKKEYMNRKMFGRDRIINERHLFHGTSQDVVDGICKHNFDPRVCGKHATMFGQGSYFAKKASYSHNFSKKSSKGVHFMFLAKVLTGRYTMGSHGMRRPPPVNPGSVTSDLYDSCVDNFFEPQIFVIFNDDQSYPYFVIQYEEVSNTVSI

PARP1 [3] = target: T2, PARP1; experiment: Inhibition of PARP1 enzyme activity (chemiluminescence); type: biochemical
[4] = ratio relative to the PARP1 enzyme activity

T2 sequence (P09874 whole entry): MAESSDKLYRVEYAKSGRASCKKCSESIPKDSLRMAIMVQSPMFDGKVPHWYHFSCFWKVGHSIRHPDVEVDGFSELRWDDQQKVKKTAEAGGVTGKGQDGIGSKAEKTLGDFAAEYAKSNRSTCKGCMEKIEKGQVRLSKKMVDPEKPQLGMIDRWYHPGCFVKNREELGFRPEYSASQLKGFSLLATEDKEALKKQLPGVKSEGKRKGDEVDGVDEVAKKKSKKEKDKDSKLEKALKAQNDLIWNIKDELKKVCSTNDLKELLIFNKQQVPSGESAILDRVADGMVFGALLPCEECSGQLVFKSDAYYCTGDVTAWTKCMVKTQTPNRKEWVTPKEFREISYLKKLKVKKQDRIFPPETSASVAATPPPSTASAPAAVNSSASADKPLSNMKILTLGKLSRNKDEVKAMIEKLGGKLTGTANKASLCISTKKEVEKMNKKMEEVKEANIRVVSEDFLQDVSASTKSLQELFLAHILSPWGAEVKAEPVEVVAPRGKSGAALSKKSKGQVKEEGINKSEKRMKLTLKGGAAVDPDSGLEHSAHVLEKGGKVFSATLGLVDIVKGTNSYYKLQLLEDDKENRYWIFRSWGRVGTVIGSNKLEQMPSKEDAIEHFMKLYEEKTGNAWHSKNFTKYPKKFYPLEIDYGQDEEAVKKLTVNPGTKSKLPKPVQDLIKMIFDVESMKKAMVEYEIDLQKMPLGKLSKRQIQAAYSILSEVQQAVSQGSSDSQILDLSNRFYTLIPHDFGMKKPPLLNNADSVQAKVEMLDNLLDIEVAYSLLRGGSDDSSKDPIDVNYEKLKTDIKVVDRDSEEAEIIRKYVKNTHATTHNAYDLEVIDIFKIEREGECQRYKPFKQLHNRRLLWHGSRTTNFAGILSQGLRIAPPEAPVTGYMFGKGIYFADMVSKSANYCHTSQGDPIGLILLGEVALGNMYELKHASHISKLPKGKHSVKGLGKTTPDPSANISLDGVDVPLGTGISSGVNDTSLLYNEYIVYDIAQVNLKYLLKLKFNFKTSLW
T1 sequence (Q9UGN5 whole entry): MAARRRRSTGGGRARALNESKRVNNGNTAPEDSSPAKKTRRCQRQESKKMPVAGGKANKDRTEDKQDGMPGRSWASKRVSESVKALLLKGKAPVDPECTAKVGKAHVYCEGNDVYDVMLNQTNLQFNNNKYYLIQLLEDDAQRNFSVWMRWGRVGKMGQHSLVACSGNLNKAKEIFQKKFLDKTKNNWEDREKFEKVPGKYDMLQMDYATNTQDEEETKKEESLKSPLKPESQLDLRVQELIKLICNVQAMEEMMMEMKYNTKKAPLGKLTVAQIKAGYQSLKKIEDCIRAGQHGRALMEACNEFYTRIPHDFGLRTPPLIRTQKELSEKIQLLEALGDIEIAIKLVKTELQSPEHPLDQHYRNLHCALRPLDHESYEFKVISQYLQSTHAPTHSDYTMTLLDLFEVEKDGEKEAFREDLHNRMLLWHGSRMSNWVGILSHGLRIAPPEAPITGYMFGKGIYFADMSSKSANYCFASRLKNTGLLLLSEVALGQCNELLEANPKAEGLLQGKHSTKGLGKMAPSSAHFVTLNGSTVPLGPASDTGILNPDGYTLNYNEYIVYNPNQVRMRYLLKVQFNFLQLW

## [2H]C([2H])([2H])NC(=O)c1ccc(N2CCN(Cc3cnc4c(N)c(CC)c(=O)[nH]c4c3)CC2)c(F)n1 [Example 4, 5-(4-((8-Amino-7-ethyl-6-oxo-5,6-dihydro-1,5-naphthyridin-3-yl)methyl)piperazin-1-yl)-6-fluoro-N-(methyl-d3)picolinamide]
PARP2
  IC50: 18.6 nM
PARP1 [1]
  EC50: 3.8 nM
A549 PARP2-KO cell line; Homo sapiens, A549, read-out: PARP2-KO IC50
  IC50: 7.7 nM
A549 PARP2-KO cell line
  PARP1 KO/PARP2 KO selectivity fold: >5222 fold
PARP1 [2]; 2-hour time point, relative to Olaparib
  capability to induce PARP1-DNA trapping higher than that of Olaparib: 48 fold
PARP1 [2]; 54-hour time point, relative to AZD5305
  PARP1-DNA trapping activity stronger than that of AZD5305: 14 fold
PARP1 [2]; FP, PARP1
  time over which PARP1-DNA trapping activity could be maintained: more than 54 hours
PARP1 [2]; PARP1, 0.25 hour
  Bottom: -8.7
  EC50: 3.11 nM
  Hillslope: 2.8
  Top: 108.7
PARP1 [2]; PARP1, 0.5 hour
  Bottom: -6.3
  EC50: 2.26 nM
  Hillslope: 2.9
  Top: 105.6
PARP1 [2]; PARP1, 1 hour
  Bottom: -4.2
  EC50: 2.58 nM
  Hillslope: 3.1
  Top: 109.1
PARP1 [2]; PARP1, 2 hour
  Bottom: -0.8
  EC50: 2.86 nM
  Hillslope: 3.0
  Top: 105.3
PARP1 [2]; PARP1, 4 hour
  Bottom: -5.6
  EC50: 2.99 nM
  Hillslope: 2.4
  Top: 106.8
PARP1 [2]; PARP1, 8 hour
  Bottom: -6.8
  EC50: 3.51 nM
  Hillslope: 2.6
  Top: 107.2
PARP1 [2]; PARP1, 24 hour
  Bottom: -4.4
  EC50: 3.97 nM
  Hillslope: 1.5
  Top: 79.2
PARP1 [2]; PARP1, 30 hour
  Bottom: -8.8
  EC50: 5.46 nM
  Hillslope: 1.2
  Top: 79.1
PARP1 [2]; PARP1, 48 hour
  Bottom: -5.6
  EC50: 4.58 nM
  Hillslope: 2.0
  Top: 51.0
PARP1 [2]; PARP1, 54 hour
  Bottom: -12.8
  EC50: 9.54 nM
  Hillslope: 0.8
  Top: 55.9
PARP11; enzyme activity
  IC50: 422 nM
PARP11; [4]
  PARP11 multiple vs PARP1: 880
A549 PARP1-KO cell lines; A549 PARP1-KO cell lines, 40 µM
  inhibition on the enzyme activity at the highest concentration: no detectable inhibition
A549 PARP1-KO cell lines; Homo sapiens, A549, PARylation at the cellular level
  IC50: > 40000 nM
PARP7; enzyme activity
  IC50: > 10000 nM
PARP7; [4]
  PARP7 multiple vs PARP1: ∞
PARP1 [3]
  IC50: 0.48 nM
PARP1 [3]; PARP2 vs PARP1
  PARP1/2 selectivity fold: 39 fold
